Test results taken from ChEMBL document CHEMBL5705887, “Distinct concentration-dependent effects of the polo-like kinase 1-specific inhibitor GSK461364A, including differential effect on apoptosis” (Cancer Res, 2009).
Active and inactive are the calls of the source. The calls are words filed in the database; no cut-off is given here.

What was measured:
[1] = target: Serine/threonine-protein kinase 10 (Homo sapiens) (UniProt O94804); assay: Inhibition of N-terminal his6-tagged recombinant human LOK (1 to 348 residues) expressed in baculovirus Sf21 cells at 10 uM relative to control
Serine/threonine-protein kinase 10 (Homo sapiens), sequence (O94804 whole entry, looked up, the tested form may be a part): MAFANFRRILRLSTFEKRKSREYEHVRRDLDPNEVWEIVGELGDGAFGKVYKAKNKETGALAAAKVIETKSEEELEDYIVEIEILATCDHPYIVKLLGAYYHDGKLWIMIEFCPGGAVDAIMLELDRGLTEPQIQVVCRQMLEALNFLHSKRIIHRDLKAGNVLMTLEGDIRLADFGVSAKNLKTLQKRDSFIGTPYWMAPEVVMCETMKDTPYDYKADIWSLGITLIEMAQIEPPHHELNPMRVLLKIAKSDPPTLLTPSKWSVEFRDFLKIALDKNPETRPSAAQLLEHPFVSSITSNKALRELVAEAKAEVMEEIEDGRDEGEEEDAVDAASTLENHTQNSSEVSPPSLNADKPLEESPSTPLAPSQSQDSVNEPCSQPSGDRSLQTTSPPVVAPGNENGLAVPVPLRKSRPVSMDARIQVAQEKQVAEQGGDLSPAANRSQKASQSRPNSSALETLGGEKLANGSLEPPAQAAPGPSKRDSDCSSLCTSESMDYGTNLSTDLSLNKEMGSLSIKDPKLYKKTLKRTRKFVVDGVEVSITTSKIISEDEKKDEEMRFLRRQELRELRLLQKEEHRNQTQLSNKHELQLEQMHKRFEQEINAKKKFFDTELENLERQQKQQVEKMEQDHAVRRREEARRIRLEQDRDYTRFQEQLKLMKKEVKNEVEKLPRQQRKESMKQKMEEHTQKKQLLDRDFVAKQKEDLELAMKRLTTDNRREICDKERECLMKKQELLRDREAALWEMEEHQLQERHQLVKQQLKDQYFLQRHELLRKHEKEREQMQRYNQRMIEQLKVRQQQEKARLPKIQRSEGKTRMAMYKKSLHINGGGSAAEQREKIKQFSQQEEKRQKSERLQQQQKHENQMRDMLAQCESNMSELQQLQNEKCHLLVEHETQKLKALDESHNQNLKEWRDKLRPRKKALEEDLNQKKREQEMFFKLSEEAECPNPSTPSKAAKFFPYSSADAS

[2] = target: PAS domain-containing serine/threonine-protein kinase (Homo sapiens) (UniProt Q96RG2); assay: Inhibition of recombinant human PASK at 10 uM relative to control
PAS domain-containing serine/threonine-protein kinase (Homo sapiens), sequence (Q96RG2 whole entry, the tested form may be a part): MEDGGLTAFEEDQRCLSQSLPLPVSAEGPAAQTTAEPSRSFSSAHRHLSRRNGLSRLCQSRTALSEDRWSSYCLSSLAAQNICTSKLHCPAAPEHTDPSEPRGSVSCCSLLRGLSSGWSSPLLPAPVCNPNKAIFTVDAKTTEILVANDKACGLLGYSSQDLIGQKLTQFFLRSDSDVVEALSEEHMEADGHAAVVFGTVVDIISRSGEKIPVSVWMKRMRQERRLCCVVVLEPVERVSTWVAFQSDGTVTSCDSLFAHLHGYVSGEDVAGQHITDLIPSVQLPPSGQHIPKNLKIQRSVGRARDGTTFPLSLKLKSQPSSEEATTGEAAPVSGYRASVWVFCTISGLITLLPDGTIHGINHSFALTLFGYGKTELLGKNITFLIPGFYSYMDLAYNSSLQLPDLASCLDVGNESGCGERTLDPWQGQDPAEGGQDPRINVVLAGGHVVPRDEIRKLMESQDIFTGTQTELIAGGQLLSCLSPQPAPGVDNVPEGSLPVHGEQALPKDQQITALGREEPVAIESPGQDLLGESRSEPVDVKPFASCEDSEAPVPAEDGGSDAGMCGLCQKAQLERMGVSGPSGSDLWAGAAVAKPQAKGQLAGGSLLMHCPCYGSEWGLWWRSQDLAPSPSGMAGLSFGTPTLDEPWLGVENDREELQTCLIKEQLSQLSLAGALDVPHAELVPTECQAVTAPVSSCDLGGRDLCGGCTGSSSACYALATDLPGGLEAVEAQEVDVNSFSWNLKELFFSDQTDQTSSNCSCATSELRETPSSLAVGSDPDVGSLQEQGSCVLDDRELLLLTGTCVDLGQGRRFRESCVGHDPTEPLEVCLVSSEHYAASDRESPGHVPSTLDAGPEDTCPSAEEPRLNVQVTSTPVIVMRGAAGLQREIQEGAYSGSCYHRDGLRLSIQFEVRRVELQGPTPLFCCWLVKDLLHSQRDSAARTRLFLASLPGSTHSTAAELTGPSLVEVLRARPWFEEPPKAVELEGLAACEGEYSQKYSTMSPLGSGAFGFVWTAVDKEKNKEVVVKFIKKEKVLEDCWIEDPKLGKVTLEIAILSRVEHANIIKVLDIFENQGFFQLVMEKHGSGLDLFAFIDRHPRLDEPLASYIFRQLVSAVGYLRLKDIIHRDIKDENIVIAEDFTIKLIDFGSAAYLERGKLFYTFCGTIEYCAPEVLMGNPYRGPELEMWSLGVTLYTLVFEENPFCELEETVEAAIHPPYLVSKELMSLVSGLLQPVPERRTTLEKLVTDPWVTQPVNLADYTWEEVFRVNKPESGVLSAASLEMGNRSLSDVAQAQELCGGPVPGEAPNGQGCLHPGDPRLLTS

A549 = assay: Induction of mitotic arrest in human A549 cells assessed as micronucleation at 20 nmol/L incubated for 16 hrs by DAPI staining based confocal microscopic analysis; format: functional, cell-based
U-87 MG [3] = assay: Antiproliferative activity against human U-87 MG cells assessed as growth inhibition incubated for 72 hrs by celltiter-glo assay; format: functional, U-87MG ATCC
Jurkat [4] = assay: Antiproliferative activity against human Jurkat cells assessed as growth inhibition incubated for 72 hrs by celltiter-glo assay; format: functional
RPMI-8226 [5] = assay: Antiproliferative activity against human RPMI-8226 cells assessed as growth inhibition incubated for 72 hrs by celltiter-glo assay; format: functional
MDA-MB-231 [6] = assay: Antiproliferative activity against human MDA-MB-231 cells assessed as growth inhibition incubated for 72 hrs by celltiter-glo assay; format: functional
NCI-H1299 [7] = assay: Antiproliferative activity against human NCI-H1299 cells assessed as growth inhibition incubated for 72 hrs by celltiter-glo assay; format: functional
PANC-1 [8] = assay: Antiproliferative activity against human PANC-1 cells assessed as growth inhibition incubated for 72 hrs by celltiter-glo assay; format: functional
Calu-3 = assay: Antiproliferative activity against human Calu-3 cells assessed as growth inhibition incubated for 72 hrs by celltiter-glo assay; format: functional
SJSA-1 = assay: Antiproliferative activity against human SJSA-1 cells assessed as growth inhibition incubated for 72 hrs by celltiter-glo assay; format: functional
MCF7 = assay: Antiproliferative activity against human MCF7 cells assessed as growth inhibition incubated for 72 hrs by celltiter-glo assay; format: functional
HCT-116 = assay: Antiproliferative activity against human HCT-116 cells assessed as growth inhibition incubated for 72 hrs by celltiter-glo assay; format: functional
NCI-H727 = assay: Antiproliferative activity against human NCI-H727 cells assessed as growth inhibition incubated for 72 hrs by celltiter-glo assay; format: functional
MDA-MB-453 = assay: Antiproliferative activity against human MDA-MB-453 cells assessed as growth inhibition incubated for 72 hrs by celltiter-glo assay; format: functional
Panc 02.03 [9] = assay: Antiproliferative activity against human Panc 02.03 cells assessed as growth inhibition incubated for 72 hrs by celltiter-glo assay; format: functional
[10] = Antiproliferative activity against human A375P cells assessed as growth inhibition incubated for 72 hrs by celltiter-glo assay; format: functional
T47D = assay: Antiproliferative activity against human T47D cells assessed as growth inhibition incubated for 72 hrs by celltiter-glo assay; format: functional
PC-3 = assay: Antiproliferative activity against human PC-3 cells assessed as growth inhibition incubated for 72 hrs by celltiter-glo assay; format: functional
HCC1937 = assay: Antiproliferative activity against human HCC1937 cells assessed as growth inhibition incubated for 72 hrs by celltiter-glo assay; format: functional
COLO 205 [11] = assay: Antitumor activity against human COLO 205 cells xenografted in Nude mouse assessed as tumor regression at 50 mg/kg, ip administered one dose every 2 day repeated for 12 days; format: functional, organism-based; settings: time 12.0 day
COLO 205 [12] = assay: Antitumor activity against human COLO 205 cells xenografted in Nude mouse assessed as effect on Ki67 level at 50 mg/kg, ip administered one dose every 2 day repeated for 12 days by immunohistochemistry analysis; format: functional, organism-based; settings: time 12.0 day
COLO 205 [13] = assay: Antitumor activity against human COLO 205 cells xenografted in Nude mouse assessed as increase in pIk1 level at 50 mg/kg, ip measured at 24 hrs by immunohistochemistry analysis; format: functional, organism-based
HCC1954 = assay: Antiproliferative activity against human HCC1954 cells assessed as of viable cell signal at minimum maximum cell growth incubated for 72 hrs by celltiter-glo assay relative to control; format: functional
Jurkat [14] = assay: Antiproliferative activity against human Jurkat cells assessed as of viable cell signal at minimum maximum cell growth incubated for 72 hrs by celltiter-glo assay relative to control; format: functional
MDA-MB-231 [15] = assay: Antiproliferative activity against human MDA-MB-231 cells assessed as of viable cell signal at minimum maximum cell growth incubated for 72 hrs by celltiter-glo assay relative to control; format: functional
NCI-H322M = assay: Antiproliferative activity against human NCI-H322M cells assessed as of viable cell signal at minimum maximum cell growth incubated for 72 hrs by celltiter-glo assay relative to control; format: functional
NCI-H358 = assay: Antiproliferative activity against human NCI-H358 cells assessed as of viable cell signal at minimum maximum cell growth incubated for 72 hrs by celltiter-glo assay relative to control; format: functional
PANC-1 [16] = assay: Antiproliferative activity against human PANC-1 cells assessed as of viable cell signal at minimum maximum cell growth incubated for 72 hrs by celltiter-glo assay relative to control; format: functional
RPMI-8226 [17] = assay: Antiproliferative activity against human RPMI-8226 cells assessed as of viable cell signal at minimum maximum cell growth incubated for 72 hrs by celltiter-glo assay relative to control; format: functional
SK-MEL-5 = assay: Antiproliferative activity against human SK-MEL-5 cells assessed as of viable cell signal at minimum maximum cell growth incubated for 72 hrs by celltiter-glo assay relative to control; format: functional
THP-1 = assay: Antiproliferative activity against human THP-1 cells assessed as of viable cell signal at minimum maximum cell growth incubated for 72 hrs by celltiter-glo assay relative to control; format: functional
U2OS = assay: Antiproliferative activity against human U2OS cells assessed as of viable cell signal at minimum maximum cell growth incubated for 72 hrs by celltiter-glo assay relative to control; format: functional
A-427 = assay: Antiproliferative activity against human A-427 cells assessed as viable cell signal at maximum growth inhibition incubated for 72 hrs by celltiter-glo assay relative to control; format: functional
NCI-H1299 [18] = assay: Antiproliferative activity against human NCI-H1299 cells assessed as viable cell signal at maximum growth inhibition incubated for 72 hrs by celltiter-glo assay relative to control; format: functional
NCI-H460 = assay: Antiproliferative activity against human NCI-H460 cells assessed as viable cell signal at maximum growth inhibition incubated for 72 hrs by celltiter-glo assay relative to control; format: functional
NCI-H522 = assay: Antiproliferative activity against human NCI-H522 cells assessed as viable cell signal at maximum growth inhibition incubated for 72 hrs by celltiter-glo assay relative to control; format: functional
OVCAR-8 = assay: Antiproliferative activity against human OVCAR-8 cells assessed as viable cell signal at maximum growth inhibition incubated for 72 hrs by celltiter-glo assay relative to control; format: functional
Panc 02.03 [19] = assay: Antiproliferative activity against human Panc 02.03 cells assessed as viable cell signal at maximum growth inhibition incubated for 72 hrs by celltiter-glo assay relative to control; format: functional
PANC-08-13 = assay: Antiproliferative activity against human PANC-08-13 cells assessed as viable cell signal at maximum growth inhibition incubated for 72 hrs by celltiter-glo assay relative to control; format: functional
[20] = Antiproliferative activity against human PL45 cells assessed as viable cell signal at maximum growth inhibition incubated for 72 hrs by celltiter-glo assay relative to control; format: functional
U-87 MG [21] = assay: Antiproliferative activity against human U-87 MG cells assessed as viable cell signal at maximum growth inhibition incubated for 72 hrs by celltiter-glo assay relative to control; format: functional, U-87MG ATCC

In the case of C[C@@H](Oc1cc(-n2cnc3ccc(CN4CCN(C)CC4)cc32)sc1C(N)=O)c1ccccc1C(F)(F)F [GSK-461364], the inhibition [1] is reported as 86%, the inhibition [2] is reported as 63% and the Activity (A549) is reported as “Active”. For the same compound, the GI50 (U-87 MG [3]) was 0.00745 µM, the GI50 (Jurkat [4]) was 0.0186 µM and the GI50 (RPMI-8226 [5]) was 0.0225 µM. The GI50 (MDA-MB-231 [6]) was 0.00915 µM, the GI50 (NCI-H1299 [7]) was 0.0614 µM and the GI50 (PANC-1 [8]) was 0.0449 µM. For the same compound, the GI50 (Calu-3) was 0.0357 µM, the GI50 (SJSA-1) was 0.0244 µM and the GI50 (MCF7) was 0.0064 µM. For the same compound, the GI50 (HCT-116) was 0.0505 µM, the GI50 (NCI-H727) was 0.0452 µM and the GI50 (MDA-MB-453) was 0.0135 µM. The GI50 (Panc 02.03 [9]) was 0.0209 µM, the GI50 [10] was 0.0236 µM and the GI50 (T47D) was 9.16 µM. For the same compound, the GI50 (PC-3) was 14.7 µM, the GI50 (HCC1937) was 4.79 µM and the Activity (COLO 205 [11]) was “Active”. For the same compound, the Activity (COLO 205 [12]) was “Active”, the Activity (COLO 205 [13]) was “Active” and the Emin (HCC1954) was 90.9%. It also gave an Emin (Jurkat [14]) of 2.2%, an Emin (MDA-MB-231 [15]) of 37% and an Emin (NCI-H322M) of 260.3%. It also gave an Emin (NCI-H358) of 150%, an Emin (PANC-1 [16]) of 114.1% and an Emin (RPMI-8226 [17]) of 34.6%. The Emin (SK-MEL-5) was 84%, the Emin (THP-1) was 60.3% and the Emin (U2OS) was 170.6%. It also gave an Emax (A-427) of 218%, an Emax (NCI-H1299 [18]) of 495% and an Emax (NCI-H460) of 952%. For the same compound, the Emax (NCI-H522) was 264%, the Emax (OVCAR-8) was 567% and the Emax (Panc 02.03 [19]) was 420%. It also gave an Emax (PANC-08-13) of 256%, an Emax [20] of 267% and an Emax (U-87 MG [21]) of 632%.
